{
  "source": "ChEMBL document CHEMBL1201862",
  "about": "“PubChem BioAssay data set” (2004)",
  "key": {"[1]": {"assay": "P. falciparum 3D7-ScDHODH growth inhibitors, dose response, SYBR Green, dry powder samples (AID 1159570);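 note: parasite growth measured after 72 hours of compound exposure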", "assay_type": "functional, cell-based"}, "[2]": {"assay": "P. falciparum Dd2 growth inhibitors, dose response, SYBR Green, cherry-picked samples (AID 1159567)", "assay_type": "functional, cell-based"}, "[3]": {"assay": "P. falciparum Dd2 growth inhibitors, dose response, SYBR Green, dry powder samples (AID 1159566);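 note: potency for growth inhibition with lower SYBR green DNA signal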", "assay_type": "functional, cell-based"}, "[4]": {"assay": "P. falciparum ATP4 D1247Y mutant growth inhibitors, dose response, NITD609-resistant line, SYBR Green, dry powder (AID 1159571);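 note: parasites synchronized at ring stage by sorbitol before testing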", "assay_type": "functional, cell-based"}, "[5]": {"assay": "M. tuberculosis growth inhibition, HTS (AID 449762)", "assay_type": "functional"}, "[6]": {"assay": "Dose-response inhibition of insulin secretion in a rat insulinoma line at 5 mM glucose (AID 1117331)", "assay_type": "functional, cell-based", "conditions": "INS-1E"}, "Ephrin type-A receptor 4": {"biological_target": "Ephrin type-A receptor 4 (Mus musculus, UniProt Q03137)", "sequence (Q03137 whole entry)": "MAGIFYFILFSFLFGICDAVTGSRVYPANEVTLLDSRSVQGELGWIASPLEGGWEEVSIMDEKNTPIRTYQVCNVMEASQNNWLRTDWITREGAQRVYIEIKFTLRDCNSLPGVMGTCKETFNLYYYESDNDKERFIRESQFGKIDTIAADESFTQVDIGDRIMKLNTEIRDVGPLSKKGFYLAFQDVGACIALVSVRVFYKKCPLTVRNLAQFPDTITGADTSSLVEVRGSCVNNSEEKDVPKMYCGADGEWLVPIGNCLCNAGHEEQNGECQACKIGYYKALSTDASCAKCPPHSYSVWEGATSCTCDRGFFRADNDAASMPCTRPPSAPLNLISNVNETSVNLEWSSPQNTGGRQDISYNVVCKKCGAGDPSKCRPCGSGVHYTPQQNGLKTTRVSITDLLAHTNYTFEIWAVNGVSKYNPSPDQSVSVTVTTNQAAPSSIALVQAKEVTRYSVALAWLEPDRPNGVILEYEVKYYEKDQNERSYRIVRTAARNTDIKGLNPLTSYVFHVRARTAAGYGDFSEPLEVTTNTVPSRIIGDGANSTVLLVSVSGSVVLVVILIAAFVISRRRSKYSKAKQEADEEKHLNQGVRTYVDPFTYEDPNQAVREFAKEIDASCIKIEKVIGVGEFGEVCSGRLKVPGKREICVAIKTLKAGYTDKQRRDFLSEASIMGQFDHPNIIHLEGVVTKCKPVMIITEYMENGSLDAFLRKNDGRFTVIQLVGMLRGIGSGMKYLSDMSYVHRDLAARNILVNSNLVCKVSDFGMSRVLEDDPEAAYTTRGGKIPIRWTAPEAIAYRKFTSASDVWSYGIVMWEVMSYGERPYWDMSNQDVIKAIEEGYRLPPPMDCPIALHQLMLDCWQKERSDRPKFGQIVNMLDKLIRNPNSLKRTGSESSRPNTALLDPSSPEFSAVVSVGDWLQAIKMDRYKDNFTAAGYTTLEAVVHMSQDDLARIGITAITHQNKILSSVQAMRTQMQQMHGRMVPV", "assay": "inhibitors of EphA4 binding to KYL peptide, primary screen, biochemical, colorimetric, mouse EphA4 (AID 689)", "assay_type": "functional"}, "14-3-3 protein gamma": {"biological_target": "14-3-3 protein gamma (Homo sapiens, UniProt P61981)", "sequence (P61981 whole entry)": "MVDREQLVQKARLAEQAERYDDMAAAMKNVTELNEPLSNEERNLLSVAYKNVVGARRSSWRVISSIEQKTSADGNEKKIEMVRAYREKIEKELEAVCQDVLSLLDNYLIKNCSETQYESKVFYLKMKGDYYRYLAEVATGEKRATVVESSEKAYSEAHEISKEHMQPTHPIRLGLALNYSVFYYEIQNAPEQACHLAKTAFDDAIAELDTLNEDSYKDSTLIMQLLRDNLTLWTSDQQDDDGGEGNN", "assay": "modulators of 14-3-3 gamma client binding – dose response (AID 711)", "assay_type": "functional"}, "[7]": {"biological_target": "Mannose-6-phosphate isomerase (Homo sapiens, UniProt P34949)", "sequence (P34949 whole entry)": "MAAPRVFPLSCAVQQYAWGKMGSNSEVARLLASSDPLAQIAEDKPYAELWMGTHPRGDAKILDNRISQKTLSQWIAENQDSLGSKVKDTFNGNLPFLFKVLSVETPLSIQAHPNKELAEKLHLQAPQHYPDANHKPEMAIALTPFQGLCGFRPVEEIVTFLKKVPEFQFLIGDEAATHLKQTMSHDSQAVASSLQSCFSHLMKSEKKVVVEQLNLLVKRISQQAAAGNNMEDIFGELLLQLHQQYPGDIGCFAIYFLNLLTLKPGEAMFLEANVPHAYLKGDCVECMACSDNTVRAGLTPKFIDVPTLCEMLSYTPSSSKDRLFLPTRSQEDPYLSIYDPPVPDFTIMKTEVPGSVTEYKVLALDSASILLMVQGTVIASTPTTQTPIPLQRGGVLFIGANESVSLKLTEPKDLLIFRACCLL", "assay": "human PMI inhibitors, high substrate, primary screen, biochemical, fluorescence intensity, high mannose 6-phosphate (AID 1220)"}, "[8]": {"assay": "inhibitors of intracellular T. cruzi replication, confirmation, NIH3T3 host cells, beta-gal luminescence (AID 2044);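 note: luminescent beta-galactosidase reporter signal from transgenic T. cruzi replicating inside host cells; inhibitors lower the luminescence signal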", "assay_type": "functional, cell-based"}, "[9]": {"assay": "Luminescence Cell-Based Secondary HTS screen to identify cytotoxic compounds of NIH3T3 cells. [Related pubchem assays: 1885, 1968 ]", "assay_type": "functional"}, "[10]": {"assay": "cytotoxicity toward NIH3T3 fibroblasts, dose response, counter-screen, cell-based, ATP luminescence, mouse fibroblasts (AID 2010);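 note: cells exposed to compound for about 90 hours before reading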", "assay_type": "functional"}, "[11]": {"biological_target": "5-hydroxytryptamine receptor 1A (Homo sapiens, UniProt P08908)", "sequence (P08908 whole entry)": "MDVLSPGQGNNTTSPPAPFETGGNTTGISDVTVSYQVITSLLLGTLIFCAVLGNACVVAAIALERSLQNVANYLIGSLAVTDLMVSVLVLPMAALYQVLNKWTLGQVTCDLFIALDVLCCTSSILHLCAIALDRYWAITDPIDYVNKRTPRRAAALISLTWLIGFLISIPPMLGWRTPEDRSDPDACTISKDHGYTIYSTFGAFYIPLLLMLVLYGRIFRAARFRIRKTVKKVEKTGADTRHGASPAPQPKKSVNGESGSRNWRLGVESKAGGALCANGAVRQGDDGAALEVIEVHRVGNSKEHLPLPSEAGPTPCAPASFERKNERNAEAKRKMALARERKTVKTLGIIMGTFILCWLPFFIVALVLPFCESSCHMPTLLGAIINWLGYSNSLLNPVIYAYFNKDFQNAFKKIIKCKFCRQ", "assay_type": "functional"}, "[12]": {"assay": "HEK293T cytotoxicity, dose response, cytotoxicity control for miR-122 modulator project, cell-based, inhibitor set, cherry-pick, set 2 (AID 720697)", "assay_type": "functional"}, "[13]": {"assay": "HEK293T cytotoxicity, dose response, cytotoxicity control for miR-122 modulator project, cell-based, activator set, cherry-pick (AID 720690);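 note: HEK293T human cells scored for general mammalian cytotoxicity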", "assay_type": "functional"}},
  "note": "Activity calls are given as the source filed them.",
  "data": [
    {"smiles": "O=C(c1cccc(F)c1)N1CC(=O)N2[C@H](C1)[C@@H](c1ccc(-c3cccnc3)cc1)[C@@H]2CO", "values": [
      {"measurement": "AC50", "setting": "[1]", "value": "0.151 µM (active)"},
      {"measurement": "AC50", "setting": "[2]", "value": "0.331 µM (active)"},
      {"measurement": "AC50", "setting": "[3]", "value": "0.088 µM (active)"},
      {"measurement": "AC50", "setting": "[4]", "value": "0.0729 µM (active)"}
    ]},
    {"smiles": "Fc1ccc(N/N=C2/CC(c3ccccc3)Oc3ccccc32)c(F)c1", "note": "(stereo not given)", "values": [
      {"measurement": "IC50", "setting": "[5]", "value": "> 100 µM (active)"}
    ]},
    {"smiles": "O=C(CCN1CCN2CCCC2C1)N1c2ccccc2Sc2ccc(Cl)cc21", "note": "(stereo not given) [AZACLORZINE]", "values": [
      {"measurement": "IC50", "setting": "[6]", "value": "16.8 µM (inactive)"}
    ]},
    {"smiles": "Cc1cc(C)n(CNc2nc(C(F)(F)F)cs2)n1", "values": [
      {"measurement": "IC50", "setting": "Ephrin type-A receptor 4", "value": "> 100 µM (not active)"}
    ]},
    {"smiles": "CN1C(=S)SC(N(O)C(=O)Nc2ccccc2)C1(C)C", "note": "(stereo not given)", "values": [
      {"measurement": "IC50", "setting": "14-3-3 protein gamma", "value": "> 50 µM (not active)"}
    ]},
    {"smiles": "FC(F)Oc1cccc(NC(=S)N2CCN(c3ccccn3)CC2)c1", "values": [
      {"measurement": "IC50", "setting": "[7]", "value": "> 50 µM (not active)"}
    ]},
    {"smiles": "O=C(NCC1CCCN(Cc2cccc(C(F)(F)F)c2)C1)c1ccc(F)cc1", "note": "(stereo not given)", "values": [
      {"measurement": "EC50", "setting": "[8]", "value": "0.112 µM (active)"},
      {"measurement": "EC50", "setting": "[9]", "value": "> 195 µM (not active)"},
      {"measurement": "EC50", "setting": "[10]", "value": "> 60 µM (inconclusive)"}
    ]},
    {"smiles": "CCOC(=O)C1CCN(C(c2cccnc2)c2c(NC(=O)c3ccco3)sc(C)c2C)CC1", "note": "(stereo not given)", "values": [
      {"measurement": "EC50", "setting": "[11]", "value": "> 50 µM (not active)"},
      {"measurement": "AC50", "setting": "[12]", "value": "1.05 µM (active)"},
      {"measurement": "AC50", "setting": "[13]", "value": "29.4 µM (active)"}
    ]}
  ]
}
